The supplement of paper PMC4862054

Assays:
Settings in all cases: 72 h
BT-474 [1] = system: BT-474
In short: (§1)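 In this assay, breast cancer cell lines spent 72 h with compound at 5 concentrations in 10-fold steps over a compound-specific 10,000-fold range. The first readout was cell death by CellTox Green fluorescence, and the second was viability by CellTiter-Glo luminescence, each normalised per plate to 0.1 % DMSO and a positive kill control. EC50 came from the dose-response curves, censored at the top concentration.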

BT-549 [2] = system: BT-549
In short: as §1

CAL-120 = system: CAL-120
In short: as §1

CAL-85-1 [3] = system: CAL-85-1
In short: as §1

DU-4475 [4] = system: DU-4475
In short: as §1

HCC1937 [5] = system: HCC1937
In short: as §1

HDQ-P1 [6] = system: HDQ-P1
In short: as §1

Hs578T [7] = system: Hs578T
In short: as §1

MDA-MB-436 [8] = system: MDA-MB-436
In short: as §1

MDA-MB-468 [9] = system: MDA-MB-468
In short: as §1

MFM-223 [10] = system: MFM-223
In short: as §1

CAL-51 [11] = system: CAL-51
In short: (§2)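 Each 384-well plate was pre-loaded with compound dissolved in 5 µl medium, received breast cancer cells in 20 µl suspension, and was incubated 72 h. A 2.5 µl addition of CellTiter-Blue for 2 h at 37 °C was followed by a fluorescence read at 560/590 nm. Data were normalised per plate to vehicle and a positive kill control and checked by Z'-factor. EC50 was fitted from the percent-inhibition dose-response curve, censored at the highest concentration, excluding rows with a drug sensitivity score of zero.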

DU-4475 [12] = system: DU-4475; remark: listed apart in the source
In short: as §2

HDQ-P1 [13] = system: HDQ-P1; remark: listed apart in the source
In short: as §2

BT-549 [14] = system: BT-549; remark: listed apart in the source
In short: as §2

HCC1143 [15] = system: HCC1143
In short: as §2

Hs578T [16] = system: Hs578T; remark: listed apart in the source
In short: as §2

MDA-MB-436 [17] = system: MDA-MB-436; remark: listed apart in the source
In short: as §2

MFM-223 [18] = system: MFM-223; remark: listed apart in the source
In short: as §2

BT-549 [19] = system: BT-549; remark: listed apart in the source
Description: (§3)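 Drug sensitivity and resistance testing (DSRT) of breast cancer cell lines in 384-well plates, 5 concentrations in 10-fold dilutions over a compound-specific 10,000-fold range. After 72 h, cytotoxicity was read by CellTox Green fluorescence and viability by CellTiter-Glo luminescence (multiplexed), normalised to DMSO and benzethonium chloride controls. EC50 is the inflection point of the fitted dose-response curve (bottom asymptote free, so it can be relative for partial curves) and is censored at the highest tested concentration. Rows with DSS 0 (no meaningful response) were excluded.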

CAL-85-1 [20] = system: CAL-85-1; remark: listed apart in the source
Description: as §3

MFM-223 [21] = system: MFM-223; remark: listed apart in the source
Description: as §3

CAL-51 [22] = system: CAL-51; remark: listed apart in the source
In short: as §1

CAL-148 [23] = system: CAL-148
In short: as §1

MDA-MB-468 [24] = system: MDA-MB-468; remark: listed apart in the source
Description: as §3

BT-474 [25] = system: BT-474; remark: listed apart in the source
In short: as §2

MDA-MB-468 [26] = system: MDA-MB-468; remark: listed apart in the source
In short: as §2

SK-BR-3 [27] = system: SK-BR-3
In short: as §2

CAL-148 [28] = system: CAL-148; remark: listed apart in the source
Description: as §3

HCC1143 [29] = system: HCC1143; remark: listed apart in the source
In short: as §1

HCC1599 = system: HCC1599
In short: as §1

MDA-MB-231 [30] = system: MDA-MB-231
In short: as §1

MDA-MB-453 [31] = system: MDA-MB-453
In short: as §1

SK-BR-3 [32] = system: SK-BR-3; remark: listed apart in the source
In short: as §1

BT-474 [33] = system: BT-474; remark: listed apart in the source
Description: as §3

CAL-51 [34] = system: CAL-51; remark: listed apart in the source
Description: as §3

HCC1143 [35] = system: HCC1143; remark: listed apart in the source
Description: as §3

HCC1937 [36] = system: HCC1937; remark: listed apart in the source
Description: as §3

MDA-MB-231 [37] = system: MDA-MB-231; remark: listed apart in the source
Description: as §3

MDA-MB-453 [38] = system: MDA-MB-453; remark: listed apart in the source
Description: as §3

With `Cn1c(Nc2ccc(C(F)(F)F)cc2)nc2cc(Oc3ccnc(-c4ncc(C(F)(F)F)[nH]4)c3)ccc21` [RAF265] the “EC50, CellTiter-Glo” value (BT-474 [1]) was 0.692 µM, the “EC50, CellTiter-Glo” value (BT-549 [2]) was 0.377 µM and the “EC50, CellTiter-Glo” value (CAL-120) was 0.0972 µM. The “EC50, CellTiter-Glo” value (CAL-85-1 [3]) was 0.827 µM, the “EC50, CellTiter-Glo” value (DU-4475 [4]) was 0.193 µM and the “EC50, CellTiter-Glo” value (HCC1937 [5]) was 0.163 µM. The “EC50, CellTiter-Glo” value (HDQ-P1 [6]) was 0.108 µM, the “EC50, CellTiter-Glo” value (Hs578T [7]) was 0.0724 µM and the “EC50, CellTiter-Glo” value (MDA-MB-436 [8]) was 0.137 µM. The “EC50, CellTiter-Glo” value (MDA-MB-468 [9]) was 0.142 µM, the “EC50, CellTiter-Glo” value (MFM-223 [10]) was 0.291 µM and the “EC50, CellTiter-Blue viability” value (CAL-51 [11]) was 0.915 µM. The “EC50, CellTiter-Blue viability” value (DU-4475 [12]) was 0.328 µM, the “EC50, CellTiter-Blue viability” value (HDQ-P1 [13]) was 0.0823 µM and the “EC50, CellTiter-Blue viability” value (BT-549 [14]) was 0.00414 µM. The “EC50, CellTiter-Blue viability” value (HCC1143 [15]) was 0.00143 µM, the “EC50, CellTiter-Blue viability” value (Hs578T [16]) was 0.196 µM and the “EC50, CellTiter-Blue viability” value (MDA-MB-436 [17]) was 0.03 µM. The “EC50, CellTiter-Blue viability” value (MFM-223 [18]) was 0.673 µM, the “EC50, CellTox Green” value (BT-549 [19]) was 0.581 µM and the “EC50, CellTox Green” value (CAL-85-1 [20]) was 0.139 µM. For the same compound, the “EC50, CellTox Green” value (MFM-223 [21]) was 0.6 µM.

For `CS(=O)(=O)c1ccc(C2=C(c3ccccc3)C(=O)OC2)cc1` [Rofecoxib], the “EC50, CellTiter-Glo” value (CAL-51 [22]) was > 10 µM.

With `CNCc1ccc(-c2[nH]c3cc(F)cc4c3c2CCNC4=O)cc1` [Rucaparib] the “EC50, CellTiter-Glo” value (BT-549 [2]) was > 10 µM, the “EC50, CellTiter-Glo” value (CAL-148 [23]) was 0.501 µM and the “EC50, CellTiter-Glo” value (MDA-MB-468 [9]) was 1.71 µM. The “EC50, CellTiter-Blue viability” value (CAL-51 [11]) was 8.87 µM, the “EC50, CellTiter-Blue viability” value (MFM-223 [18]) was 5.06 µM and the “EC50, CellTox Green” value (MDA-MB-468 [24]) was 0.00201 µM.

In the case of `N[C@@H](CSC(c1ccccc1)(c1ccccc1)c1ccccc1)C(=O)O` [S-trityl-L-cysteine], the “EC50, CellTiter-Blue viability” value (BT-474 [25]) was 10.8 µM, the “EC50, CellTiter-Blue viability” value (BT-549 [14]) was 18.3 µM and the “EC50, CellTiter-Blue viability” value (HCC1143 [15]) was > 40 µM. For the same compound, the “EC50, CellTiter-Blue viability” value (Hs578T [16]) was 1.91 µM, the “EC50, CellTiter-Blue viability” value (MDA-MB-436 [17]) was 4.58 µM and the “EC50, CellTiter-Blue viability” value (MDA-MB-468 [26]) was 1.41 µM. The “EC50, CellTiter-Blue viability” value (SK-BR-3 [27]) was 1.13 µM.

For `O=C1CCC(N2C(=O)c3ccccc3C2=O)C(=O)N1` (stereo not given) [Thalidomide], the “EC50, CellTox Green” value (CAL-148 [28]) was > 10 µM.

With `O=C(CCCCCCC(=O)Nc1ccc([C@H]2O[C@@H](CSc3nc(-c4ccccc4)c(-c4ccccc4)o3)C[C@@H](c3ccc(CO)cc3)O2)cc1)NO` [Tubacin] the “EC50, CellTiter-Glo” value (BT-474 [1]) was 3.65 µM, the “EC50, CellTiter-Glo” value (BT-549 [2]) was 7.35 µM and the “EC50, CellTiter-Glo” value (CAL-120) was 1.61 µM. For the same compound, the “EC50, CellTiter-Glo” value (CAL-148 [23]) was 2.9 µM, the “EC50, CellTiter-Glo” value (CAL-51 [22]) was 4.57 µM and the “EC50, CellTiter-Glo” value (CAL-85-1 [3]) was 2.08 µM. For the same compound, the “EC50, CellTiter-Glo” value (DU-4475 [4]) was 1.48 µM, the “EC50, CellTiter-Glo” value (HCC1143 [29]) was 6.4 µM and the “EC50, CellTiter-Glo” value (HCC1599) was 3.82 µM. For the same compound, the “EC50, CellTiter-Glo” value (HCC1937 [5]) was 4.67 µM, the “EC50, CellTiter-Glo” value (HDQ-P1 [6]) was 3.46 µM and the “EC50, CellTiter-Glo” value (MDA-MB-231 [30]) was 2.43 µM. For the same compound, the “EC50, CellTiter-Glo” value (MDA-MB-453 [31]) was 1.75 µM, the “EC50, CellTiter-Glo” value (MDA-MB-468 [9]) was 1.73 µM and the “EC50, CellTiter-Glo” value (MFM-223 [10]) was 3.59 µM. For the same compound, the “EC50, CellTiter-Glo” value (SK-BR-3 [32]) was 8.75 µM, the “EC50, CellTox Green” value (BT-474 [33]) was 1.88 µM and the “EC50, CellTox Green” value (CAL-51 [34]) was 2.07 µM. The “EC50, CellTox Green” value (CAL-85-1 [20]) was 3.16 µM, the “EC50, CellTox Green” value (HCC1143 [35]) was 6.85 µM and the “EC50, CellTox Green” value (HCC1937 [36]) was 0.124 µM. For the same compound, the “EC50, CellTox Green” value (MDA-MB-231 [37]) was 2.01 µM and the “EC50, CellTox Green” value (MDA-MB-453 [38]) was 8.37 µM.

`Oc1nc(-c2ccc(C(F)(F)F)cc2)nc2c1CSCC2` [XAV-939] was tested, and the “EC50, CellTiter-Glo” value (BT-474 [1]) was 0.35 µM, the “EC50, CellTiter-Glo” value (CAL-51 [22]) was 0.0126 µM and the “EC50, CellTiter-Glo” value (MDA-MB-231 [30]) was 0.172 µM. The “EC50, CellTiter-Blue viability” value (HDQ-P1 [13]) was 2.09 µM and the “EC50, CellTiter-Blue viability” value (HCC1143 [15]) was > 10 µM.
